Values quoted from earlier work, collected in patent publication US8288437B2, “Salts, aqueous liquid compositions containing salts of abscisic acid analogs and methods of their preparation” (Valent BioSciences Corporation, priority 2008, dated 2012).

Details: pure water at room temperature

CC1=CC(=O)CC(C)(C)[C@@]1(O)/C=C/C(C)=C\C(=O)O [(S)-(+)-abscisic acid, 2-cis-,4-trans-(S)-(+)-abscisic acid]
highest concentration that can be achieved in pure water: ≤ 3000 ppm
